Reference: patent US20080031986A1 (Metaproteomics, LLC, priority 2005, published 2008)

Key:
[1] = test system: COX-2; settings: Warner et al. 1999; cited from earlier work
[2] = test system: 3T3-L1 adipocytes; assay: Lipogenesis (Oil Red O / BODIPY) in 3T3-L1 adipocytes; assay type: cell-based, murine; settings: for adipogenic response versus positive controls indomethacin and troglitazone: Day 0 to D6/7
Procedure: Prior to experiments, cells were cultured in DMEM containing 10% FBS-HI added 50 units penicillin/ml and 50 μg streptomycin/ml, and maintained in log phase prior to experimental setup. Cells were grown in a 5% CO2 humidified incubator at 37° C. Components of the pre-confluent medium included (1) 10% FBS/DMEM containing 4.5 g glucose/L; (2) 50 U/ml penicillin; and (3) 50 μg/ml streptomycin. Growth medium was made by adding 50 ml of heat inactivated FBS and 5 ml of penicillin/streptomycin to 500 ml DMEM. This medium was stored at 4° C. Before use, the medium was warmed to 37° C. in a water bath.
3T3-T1 cells were seeded at an initial density of 6×10^4 cells/cm^2 in 24-well plates. For two days, the cells were allowed grow to reach confluence. Following confluence, the cells were forced to differentiate into adipocytes by the addition of differentiation medium; this medium consisted of (1) 10% FBS/DMEM (high glucose); (2) 0.5 mM methylisobutylxanthine; (3) 0.5 μM dexamethasone and (4) 10 μg/ml insulin (MDI medium). After three days, the medium was changed to post-differentiation medium consisting of 10 μg/ml insulin in 10% FBS/DMEM.
Whenever fresh media were added, fresh test material was also added.
Monolayer cells were washed with PBS (phosphate buffered saline, Mediatech) and fixed with 10% formaldehyde for ten minutes. Fixed cells were stained with an Oil Red O working solution of three parts 0.6% Oil Red O/isopropanol stock solution and two parts water for one hour and the excess stain was washed once with water. The resulting stained oil droplets were extracted from the cells with isopropanol and quantified by spectrophotometric analysis at 540 nm (MEL312e BIO-KINETICS READER, Bio-Tek Instruments, Winooski, Vt.).
Briefly, media were removed and cells were washed once with non-sterile PBS. A stock 1000× BODIPY/DMSO solution was made by dissolving 1 mg BODIPY in 1 ml DMSO (1,000 μg BODIPY/ml). A working BODIPY solution was then made by adding 10 μl of the stock solution to 990 μl PBS for a final BODIPY concentration in the working solution of 0.01 μg/μl. One-hundred μl of this working solution (1 μg BODIPY) was added to each well of a 96-well microtiter plate. After 15 min on an orbital shaker (DS-500, VWR Scientific Products, South Plainfield, N.J.) at ambient temperature, the cells were washed with 100 μl PBS followed by the addition of 100 μl PBS for reading for spectrofluorometric determination of BODIPY incorporation into the cells. […]
Test materials were added in dimethyl sulfoxide at Day 0 of differentiation and every two days throughout the maturation phase (Day 6/7). […] Differentiated 3T3-L1 cells were stained with 0.2% Oil Red O. The resulting stained oil droplets were dissolved with isopropanol and quantified by spectrophotometric analysis at 530 nm.

[3] = test system: insulin-resistant 3T3-L1 adipocytes; assay: Adiponectin secretion from insulin-resistant 3T3-L1 adipocytes; assay type: cell-based, murine; settings: slope of Hofstee plot
Procedure: 3T3-L1 cells were seeded at an initial density of 1×10^4 cells/cm^2 in 96-well plates. For two days, the cells were allowed grow to reach confluence. Following confluence, the cells were forced to differentiate into adipocytes by the addition of differentiation medium; this medium consisted of (1) 10% FBS/DMEM (high glucose); (2) 0.5 mM methylisobutylxanthine; (3) 0.5 μM dexamethasone and (4) 10 μg/ml insulin (MDI medium). From Day 3 through Day 5, the medium was changed to post-differentiation medium consisting of 10 μg/ml insulin in 10% FBS/DMEM.
Briefly, on Day 6, cells were maintained in serum-free media containing 0.5% bovine serum albumin (BSA) for three hours and then treated with 1 μg insulin/ml plus solvent or insulin plus test material. […] Twenty-four hours later, the supernatant medium was sampled for adiponectin determination.
Statistical Calculations and Interpretation—All assays were preformed in duplicate. […] Differences between the doses were determined using the student's t-test without correction for multiple comparisons; the nominal five percent probability of a type I error was selected.
Substituting {relative adiponectin secretion/[concentration]} for the independent variable v/[S] and {relative adiponectin secretion} for the dependant variable {v}, produced a relationship of the form y=mx+b. […]

[4] = test system: TNFα-treated 3T3-L1 adipocytes; assay: Adiponectin secretion from TNFα-treated 3T3-L1 adipocytes; assay type: cell-based, murine; settings: for maximum increase of adiponectin secretion over TNFα solvent control: 10 ng TNFα/ml
Procedure: 3T3-L1 cells were seeded at an initial density of 1×10^4 cells/cm^2 in 96-well plates. For two days, the cells were allowed grow to reach confluence. Following confluence, the cells were forced to differentiate into adipocytes by the addition of differentiation medium; this medium consisted of (1) 10% FBS/DMEM (high glucose); (2) 0.5 mM methylisobutylxanthine; (3) 0.5 μM dexamethasone and (4) 10 μg/ml insulin (MDI medium). From Day 3 through Day 5, the medium was changed to post-differentiation medium consisting of 10% FBS in DMEM. […] On Day 6, the supernatant medium was sampled for adiponectin determination.
Statistical Calculations and Interpretation—All assays were preformed in duplicate. […] Differences among the doses and test agents were determined using the Student's t-test without correction for multiple comparisons; the nominal five percent probability of a type I error was selected.

[5] = test system: db/db mice; assay: Non-fasting serum glucose and insulin in db/db diabetic mice; assay type: in vivo, mouse; settings: three daily doses by gavage
Procedure: The Model—Male, C57BLKS/J m^+/m^+Lepr^db (db/db) mice were used to assess the potential of the test materials to reduce fasting serum glucose or insulin concentrations.
Testing Procedure—Test substances were administered daily by gavage in 0.2% Tween-80. Serum was collected from the retroorbital sinus before the initial dose and ninety minutes after the third and final dose. Non-fasting serum glucose was determined enzymatically by the mutarotase/glucose oxidase method and serum insulin was determined by a mouse specific ELISA.

[6] = test system: DBA/J mice; assay: Collagen induced rheumatoid arthritis murine model; assay type: in vivo, mouse; settings: 10 mg/kg, days 30-42

CC(=O)Oc1ccccc1C(=O)O [Aspirin, aspirin]
published values for direct COX-2 inhibition [1]: 1.4 to 50 µg/mL

CC(C)CCC1=C(O)C(C(=O)C(C)C)=C(O)C(CCC(C)C)(CCC(C)C)C1=O [Hexahydro colupulone, hexahydrocolupulone]
adipogenic response versus positive controls indomethacin and troglitazone [2]: failed to elicit a lipogenic response greater than the solvent controls
Test Material at Half Maximal Secretion [3]: 3.2 µg/mL

CCc1ccc(CCOc2ccc(CC3SC(=O)NC3=O)cc2)nc1 (centres unmarked) [Pioglitazone, pioglitazone]
maximum increase of adiponectin secretion over TNFα solvent control [4]: 80%
Adiponectin Index, Observed ([4]; 1.0 μg/ml, indexed to TNFα control (Table 26)): 1.80

Cc1c(C)c2c(c(C)c1O)CCC(C)(COc1ccc(CC3SC(=O)NC3=O)cc1)O2 (centres unmarked) [Troglitazone, troglitazone]
maximum increase of adiponectin secretion over TNFα solvent control [4]: 51%

COc1cc(O)c(CC=C(C)C)c(O)c1C(=O)/C=C/c1ccc(O)cc1 [Xanthohumol, xanthohumol]
adipogenic response versus positive controls indomethacin and troglitazone [2]: comparable to indomethacin and troglitazone
serum glucose or insulin [5]: reduction in serum glucose with no effect on insulin

CN(C)C(=N)N=C(N)N [metformin, reference compound]
lipogenic response / lipogenic index relative to solvent control ([2]; Oil Red O, Acacia samples 50 μg/ml): 0.79

C[C@]12C=CC(=O)C=C1CC[C@@H]1[C@@H]2[C@@H](O)C[C@@]2(C)[C@H]1CC[C@]2(O)C(=O)CO [prednisolone]
arthritic index [6]: Significant reductions

Beta acids
adipogenic response versus positive controls indomethacin and troglitazone [2]: comparable to indomethacin and troglitazone
